The text below walks through data of US7524868B2, “Substituted pyrazoline compounds, their preparation and use as medicaments” (Laboratorios Del Dr. Esteve, S.A., priority 2004, dated 2009).

Structures are written as SMILES.

A short description of this assay: In-vivo testing for antiobesic activity. As to conditions: rats.
Setting [1] is: 10 mg/kg body weight daily intraperitoneally over 14 days.

For `O=C(NN1CCCCC1)C1=NN(c2ccc(Cl)cc2Cl)C(c2ccc(Cl)cc2)C1` (stereo not drawn) [Example 1, N-piperidinyl-5-(4-chlorophenyl)-1-(2,4-dichlorophenyl)-4,5-dihydro-1H-pyrazole-3-carboxamide], under setting [1], the “body weight (FIG. 1)” value is reported as “body weight is lowered” and the “food intake (FIG. 2)” value is listed as “reduction of food intake”. Moreover, for the setting “after end of 14 days of 10 mg/kg daily intraperitoneally”, the “body weight effect after the treatment is ended (FIG. 1)” value was “also observed after the treatment is ended”.
